Results published in patent US20230129258A1, “HETEROTANDEM BICYCLIC PEPTIDE COMPLEXES” (BicycleTx Limited, priority 2019, published 2023).
“Also recorded” adds a separate entry of the source. Like-named read-outs stand apart in the source and are kept apart here. Starred links: 1 amine or outer side, 2 acyl side, 3 side chain; linkers in the order of their positions; H or OH if unused. Positions of bridges follow the written chain, without caps; N, C: chain ends. Non-standard residues stand in square brackets, D forms with d. Chains are numbered I, II in the order given. X1 = O=C(CCOCCOCCOCCN(CCOCCOCCOCCn1cc(CCC(=O)[*:2])nn1)CCOCCOCCOCCn1cc(CCC(=O)[*:3])nn1)[*:1]; TATA = O=C(CC[*:1])N1CN(C(=O)CC[*:2])CN(C(=O)CC[*:3])C1; d1Nal = N[C@H](Cc1cccc2ccccc12)C(=O)O; Hyp = O=C(O)[C@@H]1C[C@@H](O)CN1; hArg = N=C(N)NCCCC[C@H](N)C(=O)O; tBuAla = CC(C)(C)C[C@H](N)C(=O)O; Nle = CCCC[C@H](N)C(=O)O

Experiments:
MC38 tumors = test: Anti-tumor activity of BCY13272 in syngeneic MC38 tumor model with re-challenge; format: in vivo, C57BL/6J-hCD137 mice; conditions: for complete responders: 6 doses, day 28
Description: 6-8 week old female C57BL/6J-hCD137 mice [B-hTNFRSF9(CD137) mice; Biocytogen] were implanted subcutaneously with 1×10^6 MC38 cells. Mice were randomized into treatment groups (n=6/cohort) when average tumor volumes reached around 80 mm^3 and were treated with vehicle (25 mM histidine, 10% sucrose, pH7) intravenously (IV), 8 mg/kg BCY13272, 0.9 mg/kg BCY13272 and 0.1 mg/kg BCY13272 IV. All treatments were given twice a week (BIW) for 6 doses in total. Tumor growth was monitored until Day 28 from treatment initiation. Complete responder animals (n=7) were followed until day 62 after treatment initiation and re-challenged with an implantation of 2×10^6 MC38 tumor cells and tumor growth was monitored for 28 days. In parallel, naïve age-matched control huCD137 C57Bl/6 mice (n=5) were implanted with 2×10^6 MC38 tumor cells monitored for 28 days.

human EphA2 = human EphA2 (Homo sapiens, UniProt P29317); test: SPR (Biacore) binding to immobilized human EphA2
Chain of human EphA2 (P29317 24-976): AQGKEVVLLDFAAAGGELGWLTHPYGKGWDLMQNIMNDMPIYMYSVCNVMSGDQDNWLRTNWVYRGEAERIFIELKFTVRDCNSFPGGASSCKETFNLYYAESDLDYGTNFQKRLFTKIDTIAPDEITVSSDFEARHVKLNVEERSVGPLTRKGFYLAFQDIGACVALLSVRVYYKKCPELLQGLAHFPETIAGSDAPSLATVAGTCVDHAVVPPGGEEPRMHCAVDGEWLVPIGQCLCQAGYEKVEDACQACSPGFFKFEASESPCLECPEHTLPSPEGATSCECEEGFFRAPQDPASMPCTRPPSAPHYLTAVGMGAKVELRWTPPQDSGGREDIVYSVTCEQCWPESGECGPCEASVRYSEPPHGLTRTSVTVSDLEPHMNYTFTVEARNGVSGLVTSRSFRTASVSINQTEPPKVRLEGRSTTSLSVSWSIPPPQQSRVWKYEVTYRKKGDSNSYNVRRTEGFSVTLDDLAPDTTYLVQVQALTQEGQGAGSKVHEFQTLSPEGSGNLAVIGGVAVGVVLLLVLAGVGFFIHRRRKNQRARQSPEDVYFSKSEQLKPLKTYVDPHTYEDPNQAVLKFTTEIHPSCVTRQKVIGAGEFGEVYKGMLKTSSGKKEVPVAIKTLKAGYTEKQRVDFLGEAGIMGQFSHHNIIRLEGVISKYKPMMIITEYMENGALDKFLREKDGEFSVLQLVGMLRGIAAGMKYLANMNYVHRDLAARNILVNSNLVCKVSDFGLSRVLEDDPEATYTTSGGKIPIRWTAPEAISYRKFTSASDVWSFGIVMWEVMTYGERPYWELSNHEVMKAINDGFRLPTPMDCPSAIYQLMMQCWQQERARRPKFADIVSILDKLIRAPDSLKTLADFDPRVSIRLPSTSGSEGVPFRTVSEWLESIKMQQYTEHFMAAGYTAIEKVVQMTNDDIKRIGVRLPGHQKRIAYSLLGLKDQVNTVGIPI
Description: Biacore experiments were performed to determine ka (M^−1s^−1), kd (s^−1), KD (nM) values of BCY13272 binding to human EphA2 protein.
EphA2 were biotinylated with EZ-Link™ Sulfo-NHS-LC-Biotin for 1 hour in 4 mM sodium acetate, 100 mM NaCl, pH 5.4 with a 3× molar excess of biotin over protein. The degree of labelling was determined using a Fluorescence Biotin Quantification Kit (Thermo) after dialysis of the reaction mixture into PBS. For analysis of peptide binding, a Biacore T200 instrument was used with a XanTec CMD500D chip. Streptavidin was immobilized on the chip using standard amine-coupling chemistry at 25° C. with HBS-N (10 mM HEPES, 0.15 M NaCl, pH 7.4) as the running buffer. Briefly, the carboxymethyl dextran surface was activated with a 7 min injection of a 1:1 ratio of 0.4 M 1-ethyl-3-(3-dimethylaminopropyl) carbodiimide hydrochloride (EDC)/0.1 M N-hydroxy succinimide (NHS) at a flow rate of 10 μl/min. For capture of streptavidin, the protein was diluted to 0.2 mg/ml in 10 mM sodium acetate (pH 4.5) and captured by injecting 120 μl onto the activated chip surface. Residual activated groups were blocked with a 7 min injection of 1 M ethanolamine (pH 8.5):HBS-N (1:1). Buffer was changed to PBS/0.05% Tween 20 and biotinylated EphA2 was captured to a level of 500-1500 RU using a dilution of protein to 0.2 μM in buffer. […]

human PBMCs = test: Human PBMC co-culture cytokine secretion assay with EphA2-expressing tumor cells (MC38, HT-1080, HT29); format: cell-based; conditions: anti-CD3, 48 h, read-out: EC50 of IL-2 cytokine secretion
[1] = system: Nectin-1, Nectin-2, Nectin-3, Nectin-like-1, Nectin-like-2, Nectin-like-3, Nectin-like-4, Nectin-like-5; test: Nectin-4 paralogue screening by SPR; format: binding; conditions: biotinylated targets on streptavidin surface
Description: Nectin-4 Paralogue screening: Binding of BCY11863 was assessed using SPR against Nectin-1 (2880-N1, R&D Systems), Nectin-2 (2229-N2, R&D Systems), Nectin-3 (3064-N3, R&D Systems), Nectin-like-1 (3678-S4-050, R&D Systems), Nectin-like-2 (3519-S4-050, R&D Systems), Nectin-like-3 (4290-S4-050, R&D Systems), Nectin-like-4 (4164-S4, R&D Systems) and Nectin-like-5 (2530-CD-050, R&D Systems) by labelling them with biotin and immobilizing them on a streptavidin surface.

MC38 #13 tumors = test: Re-inoculation of complete responders with MC38 #13 cells (immunogenic memory); format: in vivo, C57BL/6J-hCD137 mice; conditions: re-inoculated day 69 with 1x10^6 MC38 #13 cells; 22 days observation
Excerpt: On day 69, 5 animals that had responded completely to BCY11863 treatment were re-inoculated with 1×10^6 MC38 #13-cells. A cohort of 5 naïve C57BL/6J-hCD137 female mice were inoculated with 1×10^6 MC38 #13-cells as a control.

Compound | complete responders (MC38 tumors; 0.9 mg/kg IV BIW) | complete responders (MC38 tumors; 8 mg/kg IV BIW) | tumor regrowth after MC38 re-challenge of complete responders (MC38 tumors; re-challenge day 62, monitored 28 days) | Kd (human EphA2) [pM] | EC50 (human PBMCs; human PBMC-HT-1080 co-culture) [pM] | EC50 (human PBMCs; human PBMC-MC38 co-culture) [pM] | binding to Nectin-4 paralogues: concentration up to which no binding was shown [1] [nM] | tumor development after re-inoculation of complete responders (MC38 #13 tumors)
I: A[hArg]DC[Hyp]LVNPLCLEP[d1Nal]WTC-NH2 / II: Ac-C[tBuAla]PE[dK]PYCFADPY[Nle]CA-NH2 / III: Ac-C[tBuAla]PE[dK]PYCFADPY[Nle]CA-NH2 (linker I:4-I:11-I:18, II:1-II:8-II:15, III:1-III:8-III:15 via TATA; linker I:N-II:5-III:5 via X1) [BCY13272] | 2 out of 6 | 5 out of 6 | no tumor regrowth | 2000 | 550 ± 470 | 790 ± 240 | – | –
CCCC[C@@H]1NC(=O)[C@H](Cc2ccc(O)cc2)NC(=O)[C@@H]2CCCN2C(=O)[C@H](CC(=O)O)NC(=O)[C@H](C)NC(=O)[C@H](Cc2ccccc2)NC(=O)[C@@H]2CSCCC(=O)N3CN(CN(C3)C(=O)CCSC[C@@H](C(=O)N[C@@H](C)C(N)=O)NC1=O)C(=O)CCSC[C@H](NC(C)=O)C(=O)N[C@@H](CC(C)(C)C)C(=O)N1CCC[C@H]1C(=O)N[C@@H](CCC(=O)O)C(=O)N[C@H](CCCCNC(=O)CCc1cn(CCOCCOCCOCCN(CCOCCOCCOCCC(=O)N[C@H]3CSCCC(=O)N4CN5CN(C4)C(=O)CCSC[C@H](NC(=O)[C@@H](CC(=O)O)NC(=O)[C@H](Cc4cccc6ccccc46)NC(=O)[C@@H]4CCCN4C3=O)C(=O)N[C@@H](CCSC)C(=O)N[C@@H](CCCCNC(=N)N)C(=O)N[C@@H](CC(=O)O)C(=O)N[C@@H](Cc3c[nH]c4ccccc34)C(=O)N[C@@H](CO)C(=O)N[C@@H]([C@@H](C)O)C(=O)N3CCC[C@H]3C(=O)N3C[C@H](O)C[C@H]3C(=O)N[C@@H](Cc3c[nH]c4ccccc34)C(=O)N[C@H](C(N)=O)CSCCC5=O)CCOCCOCCOCCn3cc(CCC(=O)NCCCC[C@H]4NC(=O)[C@H](CCC(=O)O)NC(=O)[C@@H]5CCCN5C(=O)[C@H](CC(C)(C)C)NC(=O)[C@@H](NC(C)=O)CSCCC(=O)N5CN6CN(C5)C(=O)CCSC[C@H](NC(=O)[C@H](Cc5ccc(O)cc5)NC(=O)[C@@H]5CCCN5C4=O)C(=O)N[C@@H](Cc4ccccc4)C(=O)N[C@@H](C)C(=O)N[C@@H](CC(=O)O)C(=O)N4CCC[C@H]4C(=O)N[C@@H](Cc4ccc(O)cc4)C(=O)N[C@@H](CCCC)C(=O)N[C@H](C(=O)N[C@@H](C)C(N)=O)CSCCC6=O)nn3)nn1)C(=O)N1CCC[C@H]1C(=O)N[C@@H](Cc1ccc(O)cc1)C(=O)N2 [BCY11863] | – | – | – | – | – | – | > 5000 | none of the CR mice developed tumors; also recorded: none of the inoculated complete responder mice developed tumors
